Substitutions are numbered along the chain they refer to. Like-named read-outs stand apart in the source and are kept apart here. Ends that are not written are not given here.
How the values were obtained:
Test in all cases: biochemical
HLA-DR DRB3*01:01 = HLA-DR DRB3*01:01 (Homo sapiens, UniProt P01903+P79483); type: binding
[1] = target: T1, HLA-DP DPA1*02:01/DPB1*14:01 (Homo sapiens, UniProt P04440+P20036, A65V/A84D/A85E/E86D/F191V/F38H/G113D/G114E/G40L/I94L/K142R/L158P/L37V/M105V/M116V/M62Q/P115A/Q81R/R125K/T114A/T199I/T259P); type: binding
T1 sequence (P20036 29-260 A42M/M62Q/Q81R/T114A/K142R/L158P/F191V/T259P): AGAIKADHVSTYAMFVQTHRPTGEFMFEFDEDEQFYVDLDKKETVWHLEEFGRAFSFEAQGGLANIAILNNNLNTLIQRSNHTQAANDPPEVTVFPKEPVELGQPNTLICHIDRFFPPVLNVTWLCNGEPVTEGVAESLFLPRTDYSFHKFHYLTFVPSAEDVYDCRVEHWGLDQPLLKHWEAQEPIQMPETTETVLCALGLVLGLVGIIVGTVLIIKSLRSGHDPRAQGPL
T1 sequence (P04440 30-258 L37V/F38H/G40L/A65V/A84D/A85E/E86D/I94L/M105V/G113D/G114E/P115A/M116V/R125K/T199I/R223Q): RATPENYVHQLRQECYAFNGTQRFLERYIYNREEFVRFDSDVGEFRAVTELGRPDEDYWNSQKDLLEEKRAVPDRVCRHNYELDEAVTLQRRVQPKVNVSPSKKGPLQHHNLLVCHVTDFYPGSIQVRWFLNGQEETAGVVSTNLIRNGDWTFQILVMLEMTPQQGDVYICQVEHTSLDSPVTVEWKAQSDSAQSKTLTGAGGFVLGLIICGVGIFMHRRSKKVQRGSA

[2] = target: T2, HLA-DP DPA1*01:03/DPB1*03:01 (Homo sapiens, UniProt P04440+P20036, A65V/A84D/A85E/E86D/F38Y/G113D/G114E/G40L/I94L/L37V/M105V/M116V/P115A/R125K/T199I); type: binding
T2 sequence (P20036 29-260): T1 sequence (P20036 29-260 A42M/M62Q/Q81R/T114A/K142R/L158P/F191V/T259P) with M14A, Q34M, R53Q, A86T, R114K, P130L, V163F, P231T
T2 sequence (P04440 30-258 L37V/F38Y/G40L/A65V/A84D/A85E/E86D/I94L/M105V/G113D/G114E/P115A/M116V/R125K/T199I): T1 sequence (P04440 30-258 L37V/F38H/G40L/A65V/A84D/A85E/E86D/I94L/M105V/G113D/G114E/P115A/M116V/R125K/T199I/R223Q) with H9Y, Q194R

HLA-DR DRB1*03:01 = HLA-DR DRB1*03:01 (Homo sapiens, UniProt P01903+P01911, A100K/A102G/A103R/A169T/F55Y/I96L/K41T/L162R/M171V/P40S/Q125H/Q178H/Q39Y/R42S/S66N/T106N/T262R/W38E/Y61H); type: binding
HLA-DR DRB1*09:01 = HLA-DR DRB1*09:01 (Homo sapiens, UniProt P01903+P01911, A100R/A103E/D57H/D86V/F55Y/F60I/F76Y/I96F/K127E/L162R/M171V/P40D/Q125H/Q99R/R33Q/R42F/S133A/S66N/T210M/V115G/W38K/Y107V/Y59G/Y89S); type: binding
[3] = target: T3, HLA-DP DPA1*02:01/DPB1*05:01 (Homo sapiens, UniProt P04440+P20036, A65V/A84E/F191V/F64L/G113D/G114E/K142R/L158P/M116V/M62Q/P115A/Q81R/R125K/T114A/T199I/T259P/V234M); type: binding; conditions: read-out: Binding capacity/IC50 (nM) DPA1*02:01 DPB1*05:01
T3 sequence (P20036 29-260 A42M/M62Q/Q81R/T114A/K142R/L158P/F191V/T259P): T1 sequence (P20036 29-260 A42M/M62Q/Q81R/T114A/K142R/L158P/F191V/T259P)
T3 sequence (P04440 30-258 F64L/A65V/A84E/G113D/G114E/P115A/M116V/R125K/T199I/V234M): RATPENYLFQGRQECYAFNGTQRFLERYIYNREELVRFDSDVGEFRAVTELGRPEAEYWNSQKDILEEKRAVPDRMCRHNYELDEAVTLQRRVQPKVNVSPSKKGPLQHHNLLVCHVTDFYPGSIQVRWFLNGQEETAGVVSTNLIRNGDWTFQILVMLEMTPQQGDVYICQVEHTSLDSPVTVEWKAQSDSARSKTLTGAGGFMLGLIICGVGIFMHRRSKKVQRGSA

HLA-DR DRB5*01:01 = HLA-DR DRB5*01:01 (Homo sapiens, UniProt P01903+Q30154); type: binding
HLA-DR DRB4*01:01 = HLA-DR DRB4*01:01 (Homo sapiens, UniProt P01903+P13762, G164S); type: binding
HLA-DR DRB1*12:01 = HLA-DR DRB1*12:01 (Homo sapiens, UniProt P01903+P01911, A100R/A169T/D57E/D86V/F55L/H45Y/K41T/L162R/M171V/P40S/Q125H/Q178H/Q39Y/Q99D/R42G/S66L/T262R/V114A/V67L/W38E/Y59H/Y61H/Y89S); type: binding
[4] = target: HLA-DP DPA1*03:01/DPB1*04:02 (Homo sapiens, UniProt P04440+P20036, A42M/A65V/A84D/A85E/L207M/L97S)
HLA-DR DRB1*08:02 = HLA-DR DRB1*08:02 (Homo sapiens, UniProt P01903+P01911, A100R/A103L/A169T/F76Y/H45Y/I96F/K41T/L162R/M171V/P40S/Q125H/Q178H/Q39Y/Q99D/R218S/R42G/S66Y/V115G/W38E); type: binding
[5] = read-out: Binding capacity/IC50 (nM) DPA1*02:01 DPB1*14:01
[6] = read-out: Binding capacity/IC50 (nM) DPA1*01:03 DPB1*03:01
[7] = read-out: Binding capacity/IC50 (nM) DRB1*03:01
[8] = read-out: Binding capacity/IC50 (nM) DRB1*09:01
[9] = read-out: Binding capacity/IC50 (nM) DRB5*01:01
[10] = read-out: Binding capacity/IC50 (nM) DRB4*01:01
[11] = read-out: Binding capacity/IC50 (nM) DRB1*12:01
[12] = read-out: Binding capacity/IC50 (nM) DRB1*08:02
[13] = read-out: Binding capacity/IC50 (nM) DRB3*01:01

Row | Compound | IC50 (HLA-DR DRB3*01:01) [nM] | IC50 [1, 5] [nM] | IC50 [2, 6] [nM] | IC50 (HLA-DR DRB1*03:01; [7]) [nM] | IC50 (HLA-DR DRB1*09:01; [8]) [nM] | IC50 [3] [nM] | IC50 (HLA-DR DRB5*01:01; [9]) [nM] | IC50 (HLA-DR DRB4*01:01; [10]) [nM] | IC50 (HLA-DR DRB1*12:01; [11]) [nM] | IC50 [4] [nM] | IC50 (HLA-DR DRB1*08:02; [12]) [nM] | IC50 (HLA-DR DRB3*01:01; [13]) [nM] | IC50 (HLA-DR DRB1*03:01) [nM] | IC50 (HLA-DR DRB1*09:01) [nM] | IC50 (HLA-DR DRB1*12:01) [nM] | IC50 (HLA-DR DRB1*08:02) [nM] | IC50 [1] [nM] | IC50 [2] [nM] | IC50 (HLA-DR DRB5*01:01) [nM] | IC50 (HLA-DR DRB4*01:01) [nM]
1 | CC[C@H](C)[C@H](NC(=O)[C@H](CCCCN)NC(=O)[C@@H](NC(=O)[C@@H](NC(=O)[C@@H](N)CCC(N)=O)[C@@H](C)CC)[C@@H](C)O)C(=O)N[C@@H](CCC(N)=O)C(=O)N[C@@H](CC(N)=O)C(=O)N[C@@H](Cc1ccccc1)C(=O)N[C@@H](CCCNC(=N)N)C(=O)N[C@H](C(=O)N[C@@H](Cc1ccc(O)cc1)C(=O)N[C@@H](Cc1ccc(O)cc1)C(=O)N[C@@H](CCCNC(=N)N)C(=O)N[C@@H](CC(=O)O)C(=O)N[C@@H](CO)C(=O)N[C@@H](CCCNC(=N)N)C(=O)N[C@@H](CC(=O)O)C(=O)N1CCC[C@H]1C(=O)N[C@H](C(=O)N[C@@H](Cc1c[nH]c2ccccc12)C(N)=O)[C@@H](C)CC)C(C)C [integrase(216-235)] | 39 | 145 | 83 | 11 | 542 | 7.6 | 9.5 | 2080 | 6.6 | 89 | 8.8 |  |  |  |  |  |  |  |  | 
2 | CC(C)C[C@H](NC(=O)[C@H](CCCCN)NC(=O)[C@@H](NC(=O)[C@H](CC(C)C)NC(=O)[C@@H]1CCCN1C(=O)[C@@H]1CCCN1C(=O)[C@@H](NC(=O)[C@H](CC(N)=O)NC(=O)[C@@H](NC(=O)[C@H](Cc1ccccc1)NC(=O)[C@H](CCC(=O)O)NC(=O)[C@H](Cc1c[nH]c2ccccc12)NC(=O)[C@@H](N)CCC(=O)O)C(C)C)[C@@H](C)O)C(C)C)C(=O)N[C@@H](Cc1c[nH]c2ccccc12)C(=O)N[C@@H](Cc1ccc(O)cc1)C(N)=O [RT(413-427)] |  | 1200 | 5710 |  |  | 2820 | 14 | 1420 |  | 7 |  | 2390 | 469 | 57 | 260 | 58 |  |  |  | 
3 | CSCC[C@H](NC(=O)[C@H](CCCCN)NC(=O)[C@H](C)NC(=O)[C@H](Cc1ccc(O)cc1)NC(=O)[C@H](CCCCN)NC(=O)CNC(=O)[C@@H](NC(=O)[C@H](CCCCN)NC(=O)[C@H](CC(C)C)NC(=O)[C@H](CC(N)=O)NC(=O)[C@H](CCCCN)NC(=O)[C@H](Cc1ccccc1)NC(=O)[C@@H]1CCCN1C(=O)[C@H](CCC(=O)O)NC(=O)[C@@H](N)CCC(N)=O)[C@@H](C)O)C(N)=O [RT(343-357)] |  |  |  |  |  | 1340 |  | 2920 |  | 4210 |  | 5610 | 23300 | 335 | 239 | 947 | 15100 | 6510 | 1.6 | 
4 | EAVRHFPRPWLHGL-NH2 [vpr(29-42)] | 7870 |  |  |  |  | 8450 | 731 | 278 |  | 139 |  |  | > 30000 | 1270 | > 30000 | 130 | 7690 | 11 |  | 
5 | CC[C@H](C)[C@H](NC(=O)[C@H](C)NC(=O)[C@@H](N)CCC(=O)O)C(=O)N[C@H](C(=O)N[C@@H](CCCNC(=N)N)C(=O)N[C@H](C(=O)N[C@@H](CC(C)C)C(=O)N[C@@H](CCC(N)=O)C(=O)N[C@@H](CCC(N)=O)C(=O)N[C@@H](CC(C)C)C(=O)N[C@@H](CC(C)C)C(=O)N[C@@H](Cc1ccccc1)C(=O)N[C@H](C(=O)N[C@@H](Cc1c[nH]cn1)C(=O)N[C@@H](Cc1ccccc1)C(=O)N[C@@H](CCCNC(=N)N)C(=O)N[C@H](C(=O)NCC(=O)N[C@@H](CS)C(=O)N[C@@H](CCC(N)=O)C(=O)N[C@@H](Cc1c[nH]cn1)C(=O)N[C@@H](CO)C(=O)N[C@@H](CCCNC(=N)N)C(N)=O)[C@@H](C)CC)[C@@H](C)CC)[C@@H](C)CC)[C@@H](C)CC [vpr(58-80)] | 11600 |  |  |  |  | 2990 | 443 |  |  | 96 |  |  | 14400 | 477 | 845 | 61 | 3570 | 348 |  | 475
6 | IRYPLTFGWCFKLVPVDPREVEEA-NH2 [nef(133-156)] |  | 15900 | 5360 | 704 | 360 | 4780 |  | 1640 | 4430 | 670 | 2160 | 3440 |  |  |  |  |  |  | 317 | 
7 | VVIQDNSDIKVVPRRKAKII-NH2 [integrase(249-268)] |  | 3980 | 350 |  |  | 329 |  | 847 |  | 3670 |  | 2650 | 90 | 7040 | 2280 | 89 |  |  | 46 | 

Reference: article PMC3445454, “Broad and Cross-Clade CD4^+ T-Cell Responses Elicited by a DNA Vaccine Encoding Highly Conserved and Promiscuous HIV-1 M-Group Consensus Peptides” (PLoS ONE, 2012)
